Laboratory results reported in ChEMBL document CHEMBL1201862, “PubChem BioAssay data set” (2004).
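Interpolation was linear, between the two tested concentrations surrounding the appropriate level; five concentrations were tested over 48 hours in 96-well plates. At the GI50, growth is halved.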 Calls of active or inactive are those of the source. Cut-off read from the data, not from the text of the source: active = GI50 up to about 1.1 µM and inactive = higher.

Tests used:
Assay in all cases: NCI-60 cell line screen, 48 h
[1] = system: 786-0
[2] = system: A549
[3] = system: ACHN
[4] = system: BT-549
[5] = system: CAKI-1
[6] = system: CCRF-CEM
[7] = system: COLO 205
[8] = system: DU-145
[9] = system: EKVX
[10] = system: HCC 2998
[11] = system: HCT-116
[12] = system: HCT-15
[13] = system: HL-60
[14] = system: HOP-62
[15] = system: HOP-92
[16] = system: HT-29
[17] = system: Hs-578T
[18] = system: IGROV-1
[19] = system: K562
[20] = system: KM12
[21] = system: LOX IMVI
[22] = system: M14
[23] = system: MCF7
[24] = system: MDA-MB-231
[25] = system: MDA-MB-435
[26] = system: MDA-N
[27] = system: MOLT-4
[28] = system: Malme-3M
[29] = system: NCI-H226
[30] = system: NCI-H23
[31] = system: NCI-H460
[32] = system: NCI-H522
[33] = system: NCI/ADR-RES
[34] = system: OVCAR-3
[35] = system: OVCAR-4
[36] = system: OVCAR-5
[37] = system: OVCAR-8
[38] = system: PC-3
[39] = system: RPMI-8226
[40] = system: RXF 393
[41] = system: SF-268
[42] = system: SF-295
[43] = system: SF-539
[44] = system: SK-MEL-28
[45] = system: SK-MEL-2
[46] = system: SK-MEL-5
[47] = system: SK-OV-3
[48] = system: SN12C
[49] = system: SNB-19
[50] = system: SNB-75
[51] = system: SR
[52] = system: SW-620
[53] = system: T47D
[54] = system: TK-10
[55] = system: U-251
[56] = system: UACC-257
[57] = system: UACC-62
[58] = system: UO-31
[59] = system: A498

Measured: GI50

Cc1cc(=O)n2nc(CN3CCCCC3)sc2n1
inactive: [1] > 100 µM | [2] > 100 µM | [3] > 100 µM | [4] > 100 µM | [5] > 100 µM | [6] > 100 µM | [7] > 100 µM | [8] > 100 µM | [9] > 100 µM | [10] > 100 µM | [11] > 100 µM | [13] > 100 µM | [14] > 100 µM | [15] > 100 µM | [16] > 100 µM | [17] > 100 µM | [18] > 100 µM | [19] > 100 µM | [20] > 100 µM | [21] > 100 µM | [22] > 100 µM | [23] > 100 µM | [24] > 100 µM | [25] > 100 µM | [26] > 100 µM | [27] > 100 µM | [28] > 100 µM | [29] > 100 µM | [30] > 100 µM | [31] > 100 µM | [32] > 100 µM | [33] > 100 µM | [34] > 100 µM | [35] > 100 µM | [36] > 100 µM | [37] > 100 µM | [38] > 100 µM | [39] > 100 µM | [40] > 100 µM | [41] > 100 µM | [42] > 100 µM | [43] > 100 µM | [44] > 100 µM | [45] > 100 µM | [46] > 100 µM | [47] > 100 µM | [48] > 100 µM | [49] > 100 µM | [50] 54.5 µM | [51] > 100 µM | [52] > 100 µM | [53] > 100 µM | [54] > 100 µM | [55] > 100 µM | [56] > 100 µM | [57] > 100 µM | [58] > 100 µM
> 100 µM: [12]

Cc1ccc(O)c(C2=NNC(c3cccc(Cl)c3)C2)c1 (stereo not drawn)
8.09 µM: [12]
inactive: [1] 72.8 µM | [2] 34.8 µM | [3] 30.1 µM | [4] > 100 µM | [5] 36.8 µM | [6] 31.8 µM | [7] > 100 µM | [8] 86.1 µM | [9] 37 µM | [11] 34 µM | [13] 41.7 µM | [14] 79.8 µM | [15] 18.5 µM | [16] 54.8 µM | [17] 30.5 µM | [18] 5.69 µM | [19] 36.4 µM | [20] 20.6 µM | [21] 31.6 µM | [22] 87.5 µM | [23] 23.2 µM | [24] 61.5 µM | [25] 19 µM | [26] 28.3 µM | [27] 34 µM | [28] 37.8 µM | [29] 57.1 µM | [30] 50.1 µM | [31] 19.6 µM | [32] 16 µM | [33] 34.5 µM | [34] 51.5 µM | [35] 24.4 µM | [36] > 100 µM | [37] 56.2 µM | [38] 32.3 µM | [39] 25.1 µM | [40] 19.4 µM | [41] 32.9 µM | [42] 66.4 µM | [43] 66.5 µM | [45] 30 µM | [46] 54 µM | [47] 35.9 µM | [48] 37.2 µM | [49] 14.4 µM | [51] 28.9 µM | [52] 48 µM | [53] 41.4 µM | [54] 58.3 µM | [55] 33.9 µM | [56] 35 µM | [57] 39.7 µM | [58] 28.1 µM

OC1=C(c2ccccc2)C2=NCCN2c2ccccc21
33.3 µM: [12]
inactive: [1] 42.5 µM | [59] 98.4 µM | [2] 50.6 µM | [3] 40.6 µM | [4] 95.7 µM | [5] > 100 µM | [6] 51.5 µM | [7] 47 µM | [8] 84.1 µM | [9] 62.5 µM | [10] 41.1 µM | [11] 34.7 µM | [13] 45.5 µM | [14] 31.8 µM | [15] > 100 µM | [16] 55.2 µM | [17] 28.1 µM | [18] 40.9 µM | [19] 21.8 µM | [20] 31.8 µM | [21] 31.7 µM | [22] 57.8 µM | [23] 42.1 µM | [24] > 100 µM | [25] 39.1 µM | [26] 41.2 µM | [27] 46.8 µM | [29] 48.9 µM | [30] 33.5 µM | [31] 49.9 µM | [33] 52.6 µM | [34] 18.2 µM | [35] > 100 µM | [36] 66.1 µM | [37] 51.1 µM | [38] 38.1 µM | [39] 36.4 µM | [41] 45.9 µM | [42] 46.1 µM | [43] 43.8 µM | [44] 79.6 µM | [45] 18.7 µM | [46] 27.8 µM | [48] > 100 µM | [49] 20 µM | [50] 23.1 µM | [51] 87.3 µM | [52] 78.7 µM | [53] > 100 µM | [54] 94 µM | [55] 73.5 µM | [56] 93.1 µM | [57] 29.2 µM | [58] 36.9 µM
